Results taken from paper PMC4554882 (Bioorganic & medicinal chemistry, 2015).
Values after ≈ are worked out from the molar mass of the structure shown. Like-named read-outs stand apart in the source and are kept apart here.

Legend:
[1] = system: human tumor cell lines (A549, KB, KBvin, DU145); experiment: SRB cytotoxicity, HTCL panel as a whole; assay type: cell-based; details: read-out: GI50 values across the HTCL panel, range over A549, KB
DU145 (prostate cancer) = details: read-out: GI50 (μM ± SD) DU145, ref [14]; cited from earlier work
tubulin [2] = details: tubulin 1 μM, [3H]colchicine 5 μM, ref [14], cited from earlier work
Aqueous solubility = assay type: physicochemical; details: pH 7.4, Solubility (μg/mL), mean ± SD of three experiments
tubulin [3] = experiment: Inhibition of [3H]colchicine binding to tubulin; details: tubulin 1 μM, [3H]colchicine 5 μM, 10 min at 37 °C
tubulin [4] = experiment: Tubulin assembly inhibition; assay type: biochemical

COc1ccc2c(c1)CCCN2c1nc(NC2CCCC2)nc2ccccc12 [Compound 4c]
GI50 [1]: 0.14 to 1.42 µM

COc1ccc2c(c1)CCCN2c1nc(Cl)nc2ccccc12 [Compound 1a]
GI50 (DU145 (prostate cancer)): 0.0015 ± 0.0003 µM
Inhibition of colchicine binding % Inhibition ± SD 1 μM (tubulin [2]; inhibitor 1 μM): 95 ± 0.7%
Inhibition of colchicine binding % Inhibition ± SD 5 μM (tubulin [2]; inhibitor 5 μM): 99 ± 0.6%

COc1ccc2c(c1)CCCN2c1nc(NCCCO)nc2ccccc12 [Compound 4a, N^1-(2′-(3-Hydroxypropyl)aminoquinazol-4′-yl)-6-methoxy-1,2,3,4-tetrahydro-quinoline]
solubility at 4 h (Aqueous solubility): 75 µg/mL (≈ 206 µM)
GI50 [1]: 0.016 to 0.02 µM

COc1ccc(/C=C\c2cc(OC)c(OC)c(OC)c2)cc1O [CA-4, combretastatin A-4]
Inhibition of colchicine binding % Inhibition ± SD 1 μM (tubulin [3]; inhibitor 1 μM): 84 ± 0.3%
Inhibition of colchicine binding % Inhibition ± SD 5 μM (tubulin [3]; inhibitor 5 μM): 97 ± 0.4%

COc1ccc2c(c1)CCCN2c1cccc2cccnc12 [Compound 8d, 6-Methoxy-3,4-dihydro-2H-1,8′-biquinoline]
inhibitory activity in the assembly assay (tubulin [4]): did not display significant inhibitory activity
